# Measurements: US7157594B2, “6-Fluorobicyclo[3.1.0]hexane derivatives” (Taisho Pharmaceutical Co., Ltd., priority 2001, dated 2007)
# Like-named read-outs stand apart in the source and are kept apart here.
# How the values were obtained:
# [1] = target: T1, metabotropic glutamate receptor mGluR2 (Rattus norvegicus, UniProt P31421); assay: Antagonistic effect on glutamic acid-induced inhibition of forskolin-stimulated cAMP accumulation in CHO cells stably expressing mGluR2; type: cell-based
# T1 construct: expressed in transfected cells
# T1 sequence (P31421 19-872): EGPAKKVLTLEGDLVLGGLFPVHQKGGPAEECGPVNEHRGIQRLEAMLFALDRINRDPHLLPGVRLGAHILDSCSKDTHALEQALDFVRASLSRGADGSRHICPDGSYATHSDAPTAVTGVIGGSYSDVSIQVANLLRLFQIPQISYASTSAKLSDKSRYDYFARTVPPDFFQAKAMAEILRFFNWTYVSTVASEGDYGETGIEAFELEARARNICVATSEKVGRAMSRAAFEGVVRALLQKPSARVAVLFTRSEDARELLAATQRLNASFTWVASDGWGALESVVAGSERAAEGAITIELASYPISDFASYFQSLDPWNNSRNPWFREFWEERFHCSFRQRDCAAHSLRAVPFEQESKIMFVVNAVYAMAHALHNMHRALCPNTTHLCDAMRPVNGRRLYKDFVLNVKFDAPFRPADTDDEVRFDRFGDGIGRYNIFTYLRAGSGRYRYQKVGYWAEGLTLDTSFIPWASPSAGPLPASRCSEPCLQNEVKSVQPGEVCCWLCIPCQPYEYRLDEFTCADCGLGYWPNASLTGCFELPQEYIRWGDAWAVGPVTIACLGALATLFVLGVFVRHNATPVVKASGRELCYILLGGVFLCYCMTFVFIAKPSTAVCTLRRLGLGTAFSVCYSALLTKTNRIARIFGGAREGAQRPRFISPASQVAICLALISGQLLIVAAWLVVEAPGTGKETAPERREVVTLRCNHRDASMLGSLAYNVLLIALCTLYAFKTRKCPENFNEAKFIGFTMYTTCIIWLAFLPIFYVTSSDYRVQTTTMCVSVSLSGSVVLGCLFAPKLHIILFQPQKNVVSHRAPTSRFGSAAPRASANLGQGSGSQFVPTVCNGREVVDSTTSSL
# Description: Antagonistic Effect of Test Drugs on cAMP Accumulation in CHO Cells Modified to Stably Express Metabotropic Glutamate Receptor mGluR2
# Using Dulbecco's modified Eagle's medium with 10% dialyzed fetal bovine serum [1% proline, 50 units/ml penicillin, 50 μg/ml streptomycin, 2 mM L-glutamine (added before use)], CHO cells modified to stably express metabotropic glutamate receptor mGluR2 were seeded in 96-well plates at a ratio of 1.26×10^4 cells/well/0.32 cm^2/150 μl and grown at 37° C. under 5% CO2 for 2 days. The medium was then replaced by L-glutamine-free medium, and after 4 hours, the supernatant was removed by aspiration. PBS(+)-IBMX (10 mM PBS(−), 1 mM MgCl2, 1 mM CaCl2, 1 mM IBMX) was added in 150 μl aliquots and the plates were incubated for 20 minutes at 37° C. under 5% CO2. […] The dried samples were assayed for cAMP levels using a cAMP EIA kit (Amersham). The value of control samples was subtracted from each measured cAMP level.
# [2] = system: male SD rats; assay: Antidepressant effect by forced swimming test in rats; type: in vivo, rat; conditions: two i.p. injections (24 hours and 1 hour before) at 0.3, 1 or 3 mg/kg, compared to solvent group, Dunnett's test, FIGS. 1 and 2
# Description: Evaluation of Antidepressant Effect by Forced Swimming Test in Rats
# • (1) The animals used for this experiment were male SD rats (body weigh: 220–240 g, Charles River Japan). • (2) The test drugs used were:
# Namely, the rats were placed in a cylinder containing water 30 cm deep and forced to swim for 15 minutes. After a period of 24 hours, the rats were forced again to swim for 5 minutes (actual experiment). The immobility time in this actual experiment was measured for each rat to evaluate the antidepressant effect of test drugs.
# The test groups received two intraperitoneal injections (24 hours and 1 hour before the actual experiment) of LY341495 or Compound 34 in 1/15 M phosphate buffer at a dose of 0.3 mg/kg, 1 mg/kg or 3 mg/kg. The solvent group received only 1/15 M phosphate buffer by intraperitoneal route. • (4) The symbols * and ** in FIGS. 1 and 2 denote statistical significance at P<0.05 and P<0.01 by Dunnett's test, respectively, when compared to the solvent group receiving 1/15 M phosphate buffer.
# [3] = read-out: IC50, concentration required for 50% antagonism of inhibitory effect of 30 μM glutamic acid on 10^-5 M forskolin-stimulated cAMP level
# [4] = 30 μM glutamic acid, 10^-5 M forskolin
SMILES,melting point,"IC50 [1, 3]","IC50 [1, 4]",immobility time in forced swimming test [2]
CCOC(=O)[C@@]1(N)[C@H]2[C@@H](C[C@H]1OCc1ccc(Cl)c(Cl)c1)[C@]2(F)C(=O)O,> 233 °C,,,
Nc1cccc(CO[C@@H]2C[C@@H]3[C@H]([C@]2(N)C(=O)O)[C@@]3(F)C(=O)O)c1 (hydrate or solvate),> 190 °C,,,
CC(O[C@@H]1C[C@@H]2[C@H]([C@]1(N)C(=O)O)[C@@]2(F)C(=O)O)c1ccc2ccccc2c1 (relative stereo) [57],> 185 °C,,,
CC(O[C@@H]1C[C@@H]2[C@H]([C@]1(N)C(=O)O)[C@@]2(F)C(=O)O)c1ccc2ccccc2c1 (relative stereo) [58],> 188 °C,,,
"CO[C@@H]1C[C@@H]2[C@H]([C@]1(N)C(=O)O)[C@@]2(F)C(=O)O [Compound 1, (1R,2R,3R,5R,6R)-2-amino-3-methoxy-6-fluorobicyclo[3.1.0]hexane-2,6-dicarboxylic acid]",> 199 °C,229 nM,,
COC1C[C@@H]2[C@@H]([C@@]2(F)C(=O)O)[C@]1(N)C(=O)O (stereo partly drawn) [Compound 2],> 171 °C,,,
N[C@]1(C(=O)O)[C@H]2[C@@H](C[C@H]1OCc1ccc(Cl)cc1)[C@]2(F)C(=O)O [Compound 22],> 220 °C,29.1 nM,,
"N[C@](CC1c2ccccc2Oc2ccccc21)(C(=O)O)[C@H]1C[C@@H]1C(=O)O [LY341495, (2S)-2-amino-2-((1S,2S)-2-carboxycycloprop-1-yl)-3-(9-xanthyl)propionic acid, reference compound]",,,,significant dose-dependent reduction in immobility time

# Continued, in another order:
melting point,"IC50 [1, 3]","IC50 [1, 4]",SMILES,immobility time in forced swimming test [2]
> 248 °C,,,"C=CCO[C@@H]1C[C@@H]2[C@H]([C@]1(N)C(=O)O)[C@@]2(F)C(=O)O [Compound 5, (1R,2R,3R,5R,6R)-2-Amino-3-(2-propenyloxy)-6-fluorobicyclo[3.1.0]hexane-2,6-dicarboxylic acid]",
> 226 °C,,131 nM,NC1(C(=O)O)C(OCc2ccccc2)CC2C1C2(F)C(=O)O (stereo not drawn) [Compound 6],
,,40.8 nM,NC1(C(=O)O)C(OCc2ccc(F)c(F)c2)CC2C1C2(F)C(=O)O (stereo not drawn) [Compound 28],
,20 nM,,"N[C@]1(C(=O)O)[C@H]2[C@@H](C[C@H]1OCc1ccc(Cl)c(Cl)c1)[C@]2(F)C(=O)O [Compound 34, (1R,2R,3R,5R,6R)-2-amino-3-(3,4-dichlorobenzyloxy)-6-fluorobicyclo[3.1.0]hexane-2,6-dicarboxylic acid]",significant dose-dependent reduction in immobility time
> 210 °C,,22.7 nM,NC1(C(=O)O)C(OCc2ccc3ccccc3c2)CC2C1C2(F)C(=O)O (stereo not drawn) [Compound 42],
> 170 °C,,,CCCC(C)OC1C[C@@H]2[C@@H]([C@@]2(F)C(=O)O)[C@]1(N)C(=O)O (stereo partly drawn) [Compound 44],
> 230 °C,,24.4 nM,NC1(C(=O)O)C(OC(c2ccccc2)c2ccccc2)CC2C1C2(F)C(=O)O (stereo not drawn) [Compound 52],
